Test: recombinant barcode read abundance after kanamycin selection (control-corrected) (log10(CPM+1)); higher = more efficient recombination; sequences stand for … in AGTGCAGAGAAAATCGGCCAGTTTTCTCTGCCTGCAGTCCGCATGCCGT…AGATTTATGCAGCGGACTGCCTTTCTCCCAAAGTGATAAACCGGACAGTATCATGGACCGGTTTTCCCGGTAATCCGTATTTGCAAGGTTGGTTTCACT; site = the 11-nt target
Outline: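 Targets and IS621 bridge RNA target-binding loops were paired in oligos, each with a promoter, a barcode and the J23119-driven first 104 bridge RNA bases. A vector carrying the remaining 73 bp and a T7-inducible recombinase received these by Gibson cloning, and the pool was co-electroporated into E. coli with a donor plasmid. Duplicate plates contained chloramphenicol/ampicillin LB agar (control) or chloramphenicol/ampicillin/kanamycin with 0.1 mM IPTG. Recombination efficiency comes from averaged, control-corrected counts per million of recombinant-junction barcodes, reported as log10(CPM+1).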
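Further: IS621 recombinase and bridge RNA in Escherichia coli cells.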

Going from “CCACACACTTGGGTTCTAACCTGTTGCCT (site CCACACACTAG)” to “CCACCGACTTGGGTTCTAACCTGTTGCCT (site CCACCGACTAG)”, the “recombinant barcode read abundance (log10)” value falls from 0.345 to 0.0699.

First: CCACCGACTTGGGTTCTAACCTGTTGCCT (site GCACCAACTAG)
Second: CCACCGCCTTGGGTTCTAACCTGTTGCCT (site ACACCGCCTAG)
The “recombinant barcode read abundance (log10)” value of the first is higher: 0.257 for the first, 0.0161 for the second.

“CCACCGCCTTGGGTTCTAACCTGTTGCCT (site CCACCGCCTAG)” and “CCACCGCCTTGGGTTCTAACCTGTTGCCT (site GCACCGCCTAG)” are within 0.2 log units of each other in “recombinant barcode read abundance (log10)” value: 0.139 for the first, 0.211 for the second.

“CCACCGCCTTGGGTTCTAACCTGTTGCCT (site TCACCGCCTAG)” and “CCACGTTCTTGGGTTCTAACCTGTTGCCT (site CCACGTTCTAG)” are within 0.2 log units of each other in “recombinant barcode read abundance (log10)” value: 0.0912 for the first, 0.181 for the second.

“CCACGTTCTTGGGTTCTAACCTGTTGCCT (site CTACGTTCTAG)” and “CCACTAGCTTGGGTTCTAACCTGTTGCAG (site AATGGGTCTAA)” are within 0.2 log units of each other in “recombinant barcode read abundance (log10)” value: 0.0541 for the first, 0 for the second.

“CCACTAGCTTGGGTTCTAACCTGTTGCAG (site CCACTAGCTCT)” and “CCACTGCCTTGGGTTCTAACCTGTTGCCT (site CCACTACCTAG)” are within 0.2 log units of each other in “recombinant barcode read abundance (log10)” value: 0.85 for the first, 0.734 for the second.

First: CCACTGCCTTGGGTTCTAACCTGTTGCCT (site CCACTCCCTAG)
Second: CCACTGCCTTGGGTTCTAACCTGTTGCCT (site CCACTGCCTAG)
The “recombinant barcode read abundance (log10)” value of the first is lower: 0.229 for the first, 0.862 for the second.

Compared with “CCACTGCCTTGGGTTCTAACCTGTTGCCT (site CCACTTCCTAG)”, “CCAGAGTCTTGGGTTCTAACCTGTTGCCG (site CCAGAGTCTCG)” is higher in “recombinant barcode read abundance (log10)” value: 0.0699 for the first, 0.288 for the second.

“CCAGAGTCTTGGGTTCTAACCTGTTGCCG (site CCAGAGTCTTG)” and “CCAGATTCTTGGGTTCTAACCTGTTGCCT (site CAAGATTCTAG)” are within 0.2 log units of each other in “recombinant barcode read abundance (log10)” value: 0.152 for the first, 0.154 for the second.

“CCAGATTCTTGGGTTCTAACCTGTTGCCT (site CCAGATTCTAG)” and “CCAGATTCTTGGGTTCTAACCTGTTGCCT (site CGAGATTCTAG)” are within 0.2 log units of each other in “recombinant barcode read abundance (log10)” value: 0.206 for the first, 0.297 for the second.

“CCAGATTCTTGGGTTCTAACCTGTTGCCT (site CTAGATTCTAG)” and “CCAGTAGCTTGGGTTCTAACCTGTTGCGG (site CCAGAAGCTAC)” are within 0.2 log units of each other in “recombinant barcode read abundance (log10)” value: 0.144 for the first, 0.0355 for the second.

Going from “CCAGTAGCTTGGGTTCTAACCTGTTGCGG (site CCAGTAGCTCC)” to “CCAGTATCTTGGGTTCTAACCTGTTGCAT (site CCAGTATCTAT)”, the “recombinant barcode read abundance (log10)” value falls from 1.01 to 0.796.

Going from “CCAGTATCTTGGGTTCTAACCTGTTGCAT (site TAGCGGCCTCC)” to “CCATAGGCTTGGGTTCTAACCTGTTGCTG (site CCATAGGCTCA)”, the “recombinant barcode read abundance (log10)” value rises from 0.0866 to 0.732.

“CCATAGGCTTGGGTTCTAACCTGTTGCTG (site GAGAGAACTAG)” and “CCATATGCTTGGGTTCTAACCTGTTGCCT (site AACACGACTGA)” are within 0.2 log units of each other in “recombinant barcode read abundance (log10)” value: 0.0117 for the first, 0.0524 for the second.

Compared with “CCATATGCTTGGGTTCTAACCTGTTGCCT (site CCATATGCTAG)”, “CCATTCCCTTGGGTTCTAACCTGTTGCTA (site CCATTCCCTTA)” is higher in “recombinant barcode read abundance (log10)” value: 0.148 for the first, 0.43 for the second.

“CCATTCCCTTGGGTTCTAACCTGTTGCTA (site TTGACGGCTAG)” and “CCATTGTCTTGGGTTCTAACCTGTTGCCG (site CCATTGTCTCG)” are within 0.2 log units of each other in “recombinant barcode read abundance (log10)” value: 0.0589 for the first, 0.124 for the second.

“CCATTGTCTTGGGTTCTAACCTGTTGCCG (site GTTAGAACTAA)” and “CCGAATTCTTGGGTTCTAACCTGTTGCTT (site CCGAATTCTAA)” are within 0.2 log units of each other in “recombinant barcode read abundance (log10)” value: 0.128 for the first, 0.113 for the second.

First: CCGAATTCTTGGGTTCTAACCTGTTGCTT (site TACCCACCTCT)
Second: CCGAGTCCTTGGGTTCTAACCTGTTGCCT (site CCGAATCCTAG)
The “recombinant barcode read abundance (log10)” value of the first is lower: 0.00604 for the first, 0.328 for the second.

“CCGAGTCCTTGGGTTCTAACCTGTTGCCT (site CCGACTCCTAG)” and “CCGAGTCCTTGGGTTCTAACCTGTTGCCT (site CCGAGTCCTAG)” are within 0.2 log units of each other in “recombinant barcode read abundance (log10)” value: 0.303 for the first, 0.246 for the second.

First: CCGAGTCCTTGGGTTCTAACCTGTTGCCT (site CCGATTCCTAG)
Second: CCGATATCTTGGGTTCTAACCTGTTGCCT (site CCGATATCTAG)
The “recombinant barcode read abundance (log10)” value of the first is higher: 1.2 for the first, 0.287 for the second.

First: CCGATATCTTGGGTTCTAACCTGTTGCCT (site CCGCTATCTAG)
Second: CCGATATCTTGGGTTCTAACCTGTTGCCT (site CCGGTATCTAG)
The “recombinant barcode read abundance (log10)” value of the first is lower: 0.707 for the first, 1.97 for the second.

Going from “CCGATATCTTGGGTTCTAACCTGTTGCCT (site CCGTTATCTAG)” to “CCGCAGACTTGGGTTCTAACCTGTTGCCA (site CCGCAGACTTG)”, the “recombinant barcode read abundance (log10)” value falls from 0.567 to 0.0394.

“CCGCAGACTTGGGTTCTAACCTGTTGCCA (site TCGCAGACTAG)” and “CCGCATACTTGGGTTCTAACCTGTTGCCT (site CAGCATACTAG)” are within 0.2 log units of each other in “recombinant barcode read abundance (log10)” value: 0.0447 for the first, 0.0752 for the second.

First: CCGCATACTTGGGTTCTAACCTGTTGCCT (site CCGCATACTAG)
Second: CCGCATACTTGGGTTCTAACCTGTTGCCT (site CGGCATACTAG)
The “recombinant barcode read abundance (log10)” value of the first is higher: 0.277 for the first, 0.0516 for the second.

Going from “CCGCATACTTGGGTTCTAACCTGTTGCCT (site CTGCATACTAG)” to “CCGCCGGCTTGGGTTCTAACCTGTTGCCT (site CCGCCAGCTAG)”, the “recombinant barcode read abundance (log10)” value falls from 0.559 to 0.

“CCGCCGGCTTGGGTTCTAACCTGTTGCCT (site CCGCCCGCTAG)” and “CCGCCGGCTTGGGTTCTAACCTGTTGCCT (site CCGCCGGCTAG)” are within 0.2 log units of each other in “recombinant barcode read abundance (log10)” value: 0.222 for the first, 0.146 for the second.

Going from “CCGCCGGCTTGGGTTCTAACCTGTTGCCT (site CCGCCTGCTAG)” to “CCGCCTGCTTGGGTTCTAACCTGTTGCCT (site CCGCCAGCTAG)”, the “recombinant barcode read abundance (log10)” value rises from 0.0797 to 0.293.

“CCGCCTGCTTGGGTTCTAACCTGTTGCCT (site CCGCCCGCTAG)” and “CCGCCTGCTTGGGTTCTAACCTGTTGCCT (site CCGCCGGCTAG)” are within 0.2 log units of each other in “recombinant barcode read abundance (log10)” value: 0.198 for the first, 0.24 for the second.

“CCGCCTGCTTGGGTTCTAACCTGTTGCCT (site CCGCCTGCTAG)” and “CCGCGTCCTTGGGTTCTAACCTGTTGCTA (site CCGCCTCCTTC)” are within 0.2 log units of each other in “recombinant barcode read abundance (log10)” value: 0.0789 for the first, 0.128 for the second.

“CCGCGTCCTTGGGTTCTAACCTGTTGCTA (site CCGCGTCCTTA)” and “CCGCTATCTTGGGTTCTAACCTGTTGCCT (site CCGATATCTAG)” are within 0.2 log units of each other in “recombinant barcode read abundance (log10)” value: 0.111 for the first, 0.199 for the second.

First: CCGCTATCTTGGGTTCTAACCTGTTGCCT (site CCGCTATCTAG)
Second: CCGCTATCTTGGGTTCTAACCTGTTGCCT (site CCGGTATCTAG)
The “recombinant barcode read abundance (log10)” value of the first is higher: 0.379 for the first, 0.104 for the second.

“CCGCTATCTTGGGTTCTAACCTGTTGCCT (site CCGTTATCTAG)” and “CCGCTCGCTTGGGTTCTAACCTGTTGCCT (site CCGCTCGCTAG)” are within 0.2 log units of each other in “recombinant barcode read abundance (log10)” value: 0.0555 for the first, 0.146 for the second.

“CCGCTCGCTTGGGTTCTAACCTGTTGCCT (site CCGCTTACTAG)” and “CCGTCGTCTTGGGTTCTAACCTGTTGCCT (site CCGTCATCTAG)” are within 0.2 log units of each other in “recombinant barcode read abundance (log10)” value: 0.117 for the first, 0.0517 for the second.

“CCGTCGTCTTGGGTTCTAACCTGTTGCCT (site CCGTCGTCTAG)” and “CCGTCTACTTGGGTTCTAACCTGTTGCCA (site CCGTCTACTTG)” are within 0.2 log units of each other in “recombinant barcode read abundance (log10)” value: 0.255 for the first, 0.121 for the second.

“CCGTCTACTTGGGTTCTAACCTGTTGCCA (site TAACTGTCTAA)” and “CCGTCTACTTGGGTTCTAACCTGTTGCTC (site CCGTCTACTAA)” are within 0.2 log units of each other in “recombinant barcode read abundance (log10)” value: 0.164 for the first, 0.0412 for the second.

“CCGTCTACTTGGGTTCTAACCTGTTGCTC (site CCGTCTACTCA)” and “CCGTCTACTTGGGTTCTAACCTGTTGCTC (site CCGTCTACTGA)” are within 0.2 log units of each other in “recombinant barcode read abundance (log10)” value: 0.209 for the first, 0.0724 for the second.

Going from “CCGTCTACTTGGGTTCTAACCTGTTGCTC (site CCGTCTACTTA)” to “CCGTTGTCTTGGGTTCTAACCTGTTGCTA (site CCGTTGTCTTA)”, the “recombinant barcode read abundance (log10)” value rises from 0.0131 to 0.48.

“CCGTTGTCTTGGGTTCTAACCTGTTGCTA (site GGTCGTACTAG)” and “CCTAAGTCTTGGGTTCTAACCTGTTGCCA (site CCTAAGTCTTG)” are within 0.2 log units of each other in “recombinant barcode read abundance (log10)” value: 0.0443 for the first, 0.11 for the second.

“CCTAAGTCTTGGGTTCTAACCTGTTGCCA (site GACTTAACTAA)” and “CCTAGAACTTGGGTTCTAACCTGTTGCCT (site CCTAGAACTAG)” are within 0.2 log units of each other in “recombinant barcode read abundance (log10)” value: 0.133 for the first, 0.134 for the second.

“CCTAGAACTTGGGTTCTAACCTGTTGCCT (site CCTAGACCTAG)” and “CCTAGAACTTGGGTTCTAACCTGTTGCCT (site CCTAGAGCTAG)” are within 0.2 log units of each other in “recombinant barcode read abundance (log10)” value: 0.0135 for the first, 0.126 for the second.

“CCTAGAACTTGGGTTCTAACCTGTTGCCT (site CCTAGATCTAG)” and “CCTCATACTTGGGTTCTAACCTGTTGCCA (site CCTCATACTTG)” are within 0.2 log units of each other in “recombinant barcode read abundance (log10)” value: 0.0929 for the first, 0.179 for the second.

First: CCTCATACTTGGGTTCTAACCTGTTGCCA (site GGAGTACCTAT)
Second: CCTCCCTCTTGGGTTCTAACCTGTTGCTG (site CCTCCCTCTCA)
The “recombinant barcode read abundance (log10)” value of the first is lower: 0.02 for the first, 2.49 for the second.

Compared with “CCTCCCTCTTGGGTTCTAACCTGTTGCTG (site CCTCCCTCTTA)”, “CCTCGATCTTGGGTTCTAACCTGTTGCAT (site CCTCGATCTAT)” is higher in “recombinant barcode read abundance (log10)” value: 0.036 for the first, 1.59 for the second.
